# Experimental data as given in patent publication US20130274174A1, “THERAPEUTIC COMBINATION OF DAPTOMYCIN AND PROTEIN SYNTHESIS INHIBITOR ANTIBIOTIC, AND METHODS OF USE” (priority 2011, published 2013).
# Like-named read-outs stand apart in the source and are kept apart here.
# What was measured:
# S. aureus MW2 (NRS123) = experiment: microbe, parasite or virus in culture; format: cell-based, Staphylococcus aureus; conditions: for MIC: Staphylococcus aureus
# Method: (§1) S. aureus strains MW2 (NARSA collection clinical MRSA isolate, NRS123) and ATCC 33591 (MRSA strain from the American Type Culture Collection) were cultured on Mueller-Hinton II cation adjusted (MHA) medium in 90×90 mm square petri dishes. MHA containing ¼ of the MIC value of TR-700, TR-705, LZD, TIA, CLI, TET, or VAN, TMP/SMX throughout the plate and a continuous linear gradient of DAP across the plate was used to passage MW2. ATCC 33591 was passaged with ¼ of the MIC of a subset of these drugs (TR-700, TMP/SMX, and VAN). A DAP-only control passage group was included for both strains. DAP gradients were created by pouring two layers of media as previously described (Bryson, V., et al. 1952. Microbial selection. Science 116:45-51; Locke, J. B., et al., 2009. Antimicrob. Agents Chemother. 53:5265-5274). Following each passage the leading edge of growth (i.e., most resistant cells) was resuspended in phosphate buffered saline (PBS) to an absorbance of 0.30 OD600 and a 100 μl aliquot containing ˜3.0×10^7 CFU (colony-forming units) was spread on to the proceeding passage plate. The starting maximal DAP concentration was 2 μg/ml and was increased in two-fold increments when the leading edge of growth surpassed the half way point on the plate. A glycerol stock was made from the total cell population for each culture condition for each passage. Thirty serial passages were completed for each treatment group.
# S. aureus ATCC 33591 = experiment: microbe, parasite or virus in culture; format: cell-based, Staphylococcus aureus; conditions: Staphylococcus aureus
# Method: as §1
structure (smiles),measurement,setting,value
"CN[C@H](CC(C)C)C(=O)N[C@H]1C(=O)N[C@@H](CC(N)=O)C(=O)N[C@H]2C(=O)N[C@H]3C(=O)N[C@H](C(=O)N[C@H](C(=O)O)c4cc(O)cc(O)c4-c4cc3ccc4O)[C@H](O)c3ccc(c(Cl)c3)Oc3cc2cc(c3O[C@@H]2O[C@H](CO)[C@@H](O)[C@H](O)[C@H]2O[C@H]2C[C@](C)(N)[C@H](O)[C@H](C)O2)Oc2ccc(cc2Cl)[C@H]1O [VAN, vancomycin]",MIC,"S. aureus MW2 (NRS123); NRS123, passage 0, NRS123 WT",1 µg/mL
same,MIC,"S. aureus MW2 (NRS123); NRS123, passage 5, selection group DAP",2 µg/mL
same,MIC,"S. aureus MW2 (NRS123); NRS123, passage 5, selection group DAP + CLI",4 µg/mL
same,MIC,"S. aureus MW2 (NRS123); NRS123, passage 5, selection group DAP + LZD",4 µg/mL
same,MIC,"S. aureus MW2 (NRS123); NRS123, passage 5, selection group DAP + TET",2 µg/mL
same,MIC,"S. aureus MW2 (NRS123); NRS123, passage 5, selection group DAP + TIA",2 µg/mL
same,MIC,"S. aureus MW2 (NRS123); NRS123, passage 5, selection group DAP + TMP/SMX",8 µg/mL
same,MIC,"S. aureus MW2 (NRS123); NRS123, passage 5, selection group DAP + TR-700",2 µg/mL
same,MIC,"S. aureus MW2 (NRS123); NRS123, passage 5, selection group DAP + TR-705",4 µg/mL
same,MIC,"S. aureus MW2 (NRS123); NRS123, passage 5, selection group DAP + VAN",4 µg/mL
same,MIC,"S. aureus MW2 (NRS123); NRS123, passage 10, selection group DAP",4 µg/mL
same,MIC,"S. aureus MW2 (NRS123); NRS123, passage 10, selection group DAP + CLI",4 µg/mL
same,MIC,"S. aureus MW2 (NRS123); NRS123, passage 10, selection group DAP + LZD",8 µg/mL
same,MIC,"S. aureus MW2 (NRS123); NRS123, passage 10, selection group DAP + TET",2 µg/mL
same,MIC,"S. aureus MW2 (NRS123); NRS123, passage 10, selection group DAP + TIA",4 µg/mL
same,MIC,"S. aureus MW2 (NRS123); NRS123, passage 10, selection group DAP + TMP/SMX",8 µg/mL
same,MIC,"S. aureus MW2 (NRS123); NRS123, passage 10, selection group DAP + TR-700",2 µg/mL
same,MIC,"S. aureus MW2 (NRS123); NRS123, passage 10, selection group DAP + TR-705",2 µg/mL
same,MIC,"S. aureus MW2 (NRS123); NRS123, passage 10, selection group DAP + VAN",4 µg/mL
same,MIC,"S. aureus MW2 (NRS123); NRS123, passage 15, selection group DAP",8 µg/mL
same,MIC,"S. aureus MW2 (NRS123); NRS123, passage 15, selection group DAP + CLI",8 µg/mL
same,MIC,"S. aureus MW2 (NRS123); NRS123, passage 15, selection group DAP + LZD",8 µg/mL
same,MIC,"S. aureus MW2 (NRS123); NRS123, passage 15, selection group DAP + TET",0.5 µg/mL
same,MIC,"S. aureus MW2 (NRS123); NRS123, passage 15, selection group DAP + TIA",4 µg/mL
same,MIC,"S. aureus MW2 (NRS123); NRS123, passage 15, selection group DAP + TMP/SMX",8 µg/mL
same,MIC,"S. aureus MW2 (NRS123); NRS123, passage 15, selection group DAP + TR-700",2 µg/mL
same,MIC,"S. aureus MW2 (NRS123); NRS123, passage 15, selection group DAP + TR-705",2 µg/mL
same,MIC,"S. aureus MW2 (NRS123); NRS123, passage 15, selection group DAP + VAN",8 µg/mL
same,MIC,"S. aureus MW2 (NRS123); NRS123, passage 20, selection group DAP",8 µg/mL
same,MIC,"S. aureus MW2 (NRS123); NRS123, passage 20, selection group DAP + CLI",8 µg/mL
same,MIC,"S. aureus MW2 (NRS123); NRS123, passage 20, selection group DAP + LZD",8 µg/mL
same,MIC,"S. aureus MW2 (NRS123); NRS123, passage 20, selection group DAP + TET",1 µg/mL
same,MIC,"S. aureus MW2 (NRS123); NRS123, passage 20, selection group DAP + TIA",4 µg/mL
same,MIC,"S. aureus MW2 (NRS123); NRS123, passage 20, selection group DAP + TMP/SMX",8 µg/mL
same,MIC,"S. aureus MW2 (NRS123); NRS123, passage 20, selection group DAP + TR-700",2 µg/mL
same,MIC,"S. aureus MW2 (NRS123); NRS123, passage 20, selection group DAP + TR-705",2 µg/mL
same,MIC,"S. aureus MW2 (NRS123); NRS123, passage 20, selection group DAP + VAN",8 µg/mL
same,MIC,"S. aureus MW2 (NRS123); NRS123, passage 25, selection group DAP",4 µg/mL
same,MIC,"S. aureus MW2 (NRS123); NRS123, passage 25, selection group DAP + CLI",8 µg/mL
same,MIC,"S. aureus MW2 (NRS123); NRS123, passage 25, selection group DAP + LZD",8 µg/mL
same,MIC,"S. aureus MW2 (NRS123); NRS123, passage 25, selection group DAP + TET",1 µg/mL
same,MIC,"S. aureus MW2 (NRS123); NRS123, passage 25, selection group DAP + TIA",2 µg/mL
same,MIC,"S. aureus MW2 (NRS123); NRS123, passage 25, selection group DAP + TMP/SMX",8 µg/mL
same,MIC,"S. aureus MW2 (NRS123); NRS123, passage 25, selection group DAP + TR-700",2 µg/mL
same,MIC,"S. aureus MW2 (NRS123); NRS123, passage 25, selection group DAP + TR-705",2 µg/mL
same,MIC,"S. aureus MW2 (NRS123); NRS123, passage 25, selection group DAP + VAN",8 µg/mL
same,MIC,"S. aureus MW2 (NRS123); NRS123, passage 30, selection group DAP",2 µg/mL
same,MIC,"S. aureus MW2 (NRS123); NRS123, passage 30, selection group DAP + CLI",8 µg/mL
same,MIC,"S. aureus MW2 (NRS123); NRS123, passage 30, selection group DAP + LZD",2 µg/mL
same,MIC,"S. aureus MW2 (NRS123); NRS123, passage 30, selection group DAP + TET",1 µg/mL
same,MIC,"S. aureus MW2 (NRS123); NRS123, passage 30, selection group DAP + TIA",4 µg/mL
same,MIC,"S. aureus MW2 (NRS123); NRS123, passage 30, selection group DAP + TMP/SMX",8 µg/mL
same,MIC,"S. aureus MW2 (NRS123); NRS123, passage 30, selection group DAP + TR-700",2 µg/mL
same,MIC,"S. aureus MW2 (NRS123); NRS123, passage 30, selection group DAP + TR-705",2 µg/mL
same,MIC,"S. aureus MW2 (NRS123); NRS123, passage 30, selection group DAP + VAN",4 µg/mL
same,MIC,"S. aureus MW2 (NRS123); NRS123, read-out: DAP MIC by the end of the experiment (selection of DAP^ns strains), MW2, passaged with DAP alone or with co-selecting agent at ¼ MIC, CLSI breakpoint",> 1 µg/mL
same,effect on preventing the emergence of DAP^ns,"S. aureus MW2 (NRS123); co-selection at ¼ MIC, VAN: both backgrounds",had an effect on preventing the emergence of DAP^ns strains
same,DAP/VAN cross-resistance,"S. aureus MW2 (NRS123); co-selection with VAN, both backgrounds",cross-resistance was observed
same,MIC,"S. aureus ATCC 33591; ATCC33591, passage 0, ATCC 33591 WT",2 µg/mL
same,MIC,"S. aureus ATCC 33591; ATCC33591, passage 5, selection group DAP",4 µg/mL
same,MIC,"S. aureus ATCC 33591; ATCC33591, passage 5, selection group DAP + TMP/SMX",4 µg/mL
same,MIC,"S. aureus ATCC 33591; ATCC33591, passage 5, selection group DAP + TR-700",2 µg/mL
same,MIC,"S. aureus ATCC 33591; ATCC33591, passage 5, selection group DAP + VAN",4 µg/mL
same,MIC,"S. aureus ATCC 33591; ATCC33591, passage 10, selection group DAP",4 µg/mL
same,MIC,"S. aureus ATCC 33591; ATCC33591, passage 10, selection group DAP + TMP/SMX",8 µg/mL
same,MIC,"S. aureus ATCC 33591; ATCC33591, passage 10, selection group DAP + TR-700",4 µg/mL
same,MIC,"S. aureus ATCC 33591; ATCC33591, passage 10, selection group DAP + VAN",4 µg/mL
same,MIC,"S. aureus ATCC 33591; ATCC33591, passage 15, selection group DAP",4 µg/mL
same,MIC,"S. aureus ATCC 33591; ATCC33591, passage 15, selection group DAP + TMP/SMX",4 µg/mL
same,MIC,"S. aureus ATCC 33591; ATCC33591, passage 15, selection group DAP + TR-700",4 µg/mL
same,MIC,"S. aureus ATCC 33591; ATCC33591, passage 15, selection group DAP + VAN",4 µg/mL
same,MIC,"S. aureus ATCC 33591; ATCC33591, passage 20, selection group DAP",4 µg/mL
same,MIC,"S. aureus ATCC 33591; ATCC33591, passage 20, selection group DAP + TMP/SMX",4 µg/mL
same,MIC,"S. aureus ATCC 33591; ATCC33591, passage 20, selection group DAP + TR-700",4 µg/mL
same,MIC,"S. aureus ATCC 33591; ATCC33591, passage 20, selection group DAP + VAN",8 µg/mL
same,MIC,"S. aureus ATCC 33591; ATCC33591, passage 25, selection group DAP",4 µg/mL
same,MIC,"S. aureus ATCC 33591; ATCC33591, passage 25, selection group DAP + TMP/SMX",4 µg/mL
same,MIC,"S. aureus ATCC 33591; ATCC33591, passage 25, selection group DAP + TR-700",4 µg/mL
same,MIC,"S. aureus ATCC 33591; ATCC33591, passage 25, selection group DAP + VAN",8 µg/mL
same,MIC,"S. aureus ATCC 33591; ATCC33591, passage 30, selection group DAP",4 µg/mL
same,MIC,"S. aureus ATCC 33591; ATCC33591, passage 30, selection group DAP + TMP/SMX",4 µg/mL
same,MIC,"S. aureus ATCC 33591; ATCC33591, passage 30, selection group DAP + TR-700",2 µg/mL
same,MIC,"S. aureus ATCC 33591; ATCC33591, passage 30, selection group DAP + VAN",4 µg/mL
